{"source": "patent US20180235909A1", "about": "“Use of 1-phenyl-3-dimethylaminopropane Compounds for Treating Rheumatoid Pain” (Gruenenthal GmbH, priority 2009, published 2018)", "tested_on": "CFA-induced chronic arthritic pain", "test": "CFA-induced chronic knee joint arthritic pain in rats, weight bearing (incapacitance tester)", "settings": "for Analgesic efficacy (mean percentage of maximal possible effect, weight bearing): highest possible dose without readout confounding side effects, five days post intraarticular CFA, n=10; for Side effects at higher doses: doses higher than the highest analyzed dose"}
{"smiles": "CC(C)Cc1ccc(C(C)C(=O)O)cc1", "note": "(centres unmarked) [Ibuprofen]", "values": [{"measurement": "Analgesic efficacy (mean percentage of maximal possible effect, weight bearing)", "setting": "147 mg/kg ip", "value": 54.7, "unit": "% @ 147 mg/kg"}, {"measurement": "Analgesic efficacy (mean percentage of maximal possible effect, weight bearing)", "setting": "147 mg/kg ip, listed as ibuprofen", "value": 54.7, "unit": "%"}, {"measurement": "Side effects at higher doses", "setting": "rats", "value": "readout (weight bearing) confounding side effects"}]}
{"smiles": "CN1CC[C@]23c4c5ccc(O)c4O[C@H]2[C@@H](O)C=C[C@H]3[C@H]1C5", "note": "[Morphine]", "values": [{"measurement": "Analgesic efficacy (mean percentage of maximal possible effect, weight bearing)", "setting": "2.15 mg/kg iv", "value": 59.6, "unit": "% @ 2.15 mg/kg"}, {"measurement": "Analgesic efficacy (mean percentage of maximal possible effect, weight bearing)", "setting": "2.15 mg/kg iv, listed as morphine", "value": 59.6, "unit": "%"}, {"measurement": "Side effects at higher doses", "setting": "rats", "value": "readout (weight bearing) confounding side effects"}]}
{"smiles": "COc1ccc2c3c1O[C@H]1C(=O)CC[C@@]4(O)[C@@H](C2)N(C)CC[C@]314", "note": "[Oxycodone]", "values": [{"measurement": "Analgesic efficacy (mean percentage of maximal possible effect, weight bearing)", "setting": "0.464 mg/kg i.v.", "value": 46.1, "unit": "% @ 0.464 mg/kg"}, {"measurement": "Analgesic efficacy (mean percentage of maximal possible effect, weight bearing)", "setting": "0.464 mg/kg i.v., listed as oxycodone", "value": 46.1, "unit": "%"}, {"measurement": "Side effects at higher doses", "setting": "rats", "value": "readout (weight bearing) confounding side effects"}]}
{"smiles": "CC[C@@H](c1cccc(O)c1)[C@@H](C)CN(C)C", "note": "[Tapentadol, (−)-(1R,2R)-3-(3-dimethylamino-1-ethyl-2-methyl-propyl)¬phenol]", "values": [{"measurement": "Side effects at higher doses", "setting": "rats", "value": "readout (weight bearing) confounding side effects"}, {"measurement": "Effect on CFA-induced decrease in weight bearing", "setting": "i.v. administration, rats, dose dependence", "value": "significantly reduced the CFA-induced decrease in weight bearing in a dose dependent manner"}]}
